Test results taken from patent publication US20190038756A1, “COMPOSITIONS INCLUDING BENZENESULFONAMIDE-CONTAINING NON-STEROIDAL ANTI-INFLAMMATORY DRUGS, SILK FIBROIN, AND A GELLING AGENT AND USES THEREOF” (Cocoon Biotech Inc., priority 2016, published 2019).
Values after ≈ are worked out from the molar mass of the structure shown. Counter-ions that a name gives are not always drawn. Like-named read-outs stand apart in the source and are kept apart here.

Experiments:
[1] = In vitro release study of NSAIDs from silk-PEG hydrogels (UV detection); type: physicochemical; details: for time within which celecoxib was released / sustained release (e.g., greater than one week) using a silk-fibroin hydrogel delivery platform: silk-fibroin hydrogel; for time within which celecoxib was released: 6.5% (w/v) fibroin (FIG. 5); for release of free drug without encapsulation in silk-fibroin hydrogels: no hydrogel
Experimental: Lyophilized silk was dissolved with ultrapure water to obtain concentrations of 1.3, 3.6, 7.0, 13.0, and 23.0% (w/v). Polyethylene glycol (PEG) with molecular weights of 300 and 400 Da (PEG300 and PEG400) was diluted with ultrapure water when necessary. Celecoxib (a benzenesulfonamide-containing NSAID) and other NSAIDs which are not benzenesulfonamide-containing NSAIDs (tenoxicam, meloxicam, and lomoxicam) were dissolved with 80% (v/v) PEG400 solution to obtain low concentration solutions (<40 mg/mL) or with 100% (v/v) PEG300 to obtain high concentration solutions (>100 mg/mL). Diclofenac sodium salt (another NSAID that is not a benzenesulfonamide-containing NSAID) was dissolved in the aqueous silk solution.
The PEG or PEG/drug solution was mixed with silk solution by pipetting up and down gently and aliquoted into a 2-mL Eppendorf tube. Each tube was left at 37° C. to gel overnight (Wang et al., Acta Biomater. 12:51-61, 2015).
To the 2-mL Eppendorf tube containing fibroin-drug hydrogel, 1.95 mL of release medium was added. The release medium contained 1× phosphate buffer, pH 7.4, 0.1% (v/v) Tween-80, and 0.02% (w/v) sodium azide. The samples were incubated at 37° C. with gentle shaking. The release medium was changed after 24 hours and then approximately once every 3 days. The release medium was subjected to UV detection using a UV transparent bottom plate (Corning) at the respective wavelengths listed in Table 8. Control release medium was measured under the same condition for background subtraction. A calibration curve was generated for each drug by dissolving a known amount of each drug in the release medium, and making dilutions with the release medium.

[2] = Solubility of celecoxib in release media; type: physicochemical; details: release medium (phosphate buffered saline with Tween-80), aqueous with cosolvent or surfactant or cyclodextrin; 1× phosphate buffered saline, 2% (v/v) Tween-80, 0.05% sodium azide
[3] = AUC at NOAEL oral dose from oral Celecoxib NDA package; details: in vivo, oral NOAEL dose 20 mg/kg, read-out: Extrapolated AUC for 25 days
[4] = oral NOAEL dose 20 mg/kg, cited from earlier work
[5] = Gelation of silk fibroin hydrogels with varying gelling agents (25° C., 37° C., autoclave); type: physicochemical
[6] = tested on: TNF-α in human whole blood; assay: Human whole blood activation: TNF-α by ELISA after 24 hours at 37° C., with or without LPS; type: cell-based
Text: Acute inflammatory responses are initiated via activation of a mammal's innate immune system. Human whole blood contains the principle repertoire of immune cells responsible for initiating an innate driven inflammatory response. Activation of inflammation in human whole blood is a useful in vitro assay for assessing the inflammatory potential of silk-fibroin hydrogel constituents. For this reason, whole human blood was exposed to silk fibroin solutions, three dimensional silk fibroin hydrogels, and a variety of different gelling agents for 24 hours at 37° C. and assessed for activation of inflammation.
Lipopolysaccharide (LPS) was used as a positive stimulator of the inflammatory marker TNF-α, in whole blood. Experiments to assess the inflammatory potential of formulation constituents were conducted both in the absence and the presence of lipopolysaccharide (LPS). The later condition to assess whether any formulation constituent had the activity of potentiating a known inflammatory signal. In each experiment, plasma was collected at the end of the incubation period and analyzed for TNF-α via enzyme-linked immunosorbent assay (ELISA).

[7] = absence of celecoxib, RT curing
[8] = absence of celecoxib, autoclaving

Cc1ccc(-c2cc(C(F)(F)F)nn2-c2ccc(S(N)(=O)=O)cc2)cc1 [Celecoxib, 4-[5-(4-methylphenyl)-3-(trifluoromethyl)pyrazol-1-yl]benzenesulfonamide]
extended time period of celecoxib release ([1]; all hydrogels of FIG. 7): ≤ 56 days | duration of sustained celecoxib release ([1]; fibroin concentrations in the hydrogel […] (w/v) to 6.5% (w/v)): sustained over two months | period over which celecoxib release occurs ([1]; hydrogel fibroin concentration 0.65% (w/v) (FIG. 6)): 15 days | period over which celecoxib release occurs ([1]; hydrogel fibroin concentration 1.3% (w/v) (FIG. 6)): 30 days | period over which celecoxib release occurs ([1]; hydrogel fibroin concentration 12.5% (w/v) (FIG. 6)): 41 days | period over which celecoxib release occurs ([1]; hydrogel fibroin concentration […] (w/v) (FIG. 6)): 41 days | period over which celecoxib release occurs ([1]; no fibroin/“free” celecoxib sample (0% silk-fibroin) (FIG. 6)): 6 days | time within which celecoxib was released ([1]; celecoxib 0.09375% (w/v)): ≤ 30 days | time within which celecoxib was released ([1]; celecoxib 0.1875% (w/v)): ≤ 30 days | time within which celecoxib was released ([1]; celecoxib 0.375% (w/v)): ≤ 75 days | duration of slow release of celecoxib at ˜40 μg a day ([1]; silk-fibroin hydrogels): more than 75 days | slow release rate of celecoxib from silk-fibroin hydrogels ([1]; silk-fibroin hydrogels): ~40 μg a day | solubility [2]: 0.85 mg/mL (≈ 2230 µM) | AUC ([3]; Female (F)): 978 µg·h/mL | AUC ([3]; Male (M)): 468 µg·h/mL | AUC at Day 1 ([4]; Female (F)): 39.1 µg·h/mL | AUC at Day 1 ([4]; Male (M)): 18.7 µg·h/mL

O=C(O)Cc1ccccc1Nc1c(Cl)cccc1Cl [Diclofenac sodium salt]
time within which drug was completely released ([1]; from all the tested silk-fibroin hydrogels (FIGS. 2-4), 37° C., phosphate buffer pH 7.4, 0.1% Tween-80): ≤ 4 days | release of free drug without encapsulation in silk-fibroin hydrogels [1]: released within one day | sustained release (e.g., greater than one week) using a silk-fibroin hydrogel delivery platform [1]: could not be achieved

CN1C(C(=O)Nc2ccccn2)=C(O)c2sc(Cl)cc2S1(=O)=O [Lomoxicam, lomoxicam]
day at which cumulative release plateaued ([1]; drug with no fibroin (FIG. 1)): 2 days | day at which cumulative release plateaued ([1]; from silk-fibroin hydrogels, all tested formulations (FIG. 1), 37° C., phosphate buffer pH 7.4, 0.1% Tween-80): 6 days | release of free drug without encapsulation in silk-fibroin hydrogels [1]: released within one day | sustained release (e.g., greater than one week) using a silk-fibroin hydrogel delivery platform [1]: could not be achieved

CC(O)CO (stereo not drawn) [Propylene glycol]
Minimum gelling agent concentration eliciting gelation ([5]; 87 mg/mL celecoxib, RT): 30 % (v/v) | Minimum gelling agent concentration eliciting gelation ([5]; 87 mg/mL celecoxib, autoclave): 10 % (v/v) | Minimum gelling agent concentration eliciting gelation [5, 7]: 40 % (v/v) | Minimum gelling agent concentration eliciting gelation [5, 8]: 20 % (v/v)

OCC(O)CO [glycerol]
Minimum gelling agent concentration eliciting gelation ([5]; 87 mg/mL celecoxib, curing temperature 37° C.): 40 % (v/v) | Minimum gelling agent concentration eliciting gelation ([5]; absence of celecoxib, 37° C.): 40 % (v/v) | Minimum gelling agent concentration eliciting gelation [5, 7]: 50 % (v/v) | Minimum gelling agent concentration eliciting gelation [5, 8]: 30 % (v/v)

OC[C@@H](O)[C@@H](O)[C@H](O)[C@@H](O)CO [sorbitol]
Gelling agent concentration at which a hydrogel formed ([5]; absence of celecoxib, 37° C.): 30 % (w/v) | Gelling agent concentration at which a hydrogel formed ([5]; absence of celecoxib, RT): 30 % (w/v) | Inflammatory potential (TNF-α) in human whole blood ([6]; +/−LPS, relevant concentrations): non-inflammatory

Glycerol formal
Minimum gelling agent concentration eliciting gelation [5, 7]: 40 % (v/v) | Minimum gelling agent concentration eliciting gelation [5, 8]: 20 % (v/v)

silk fibroin: soluble silk fibroin samples isolated using several different degumming techniques
Inflammatory signal (TNF-α) in human whole blood ([6]; absence of co-added LPS, 24 hours at 37° C.): did not exhibit inflammatory signals beyond low baseline responses | TNF-α response in human whole blood ([6]; presence of LPS, 24 hours at 37° C.): generally reduced compared to the response to LPS alone
